pIC50: −log10 of the molar value. Like-named read-outs stand apart in the source and are kept apart here.
Key:
MMP-1 [1] = target: T1, MMP-1 (Homo sapiens, UniProt P03956); details: for pIC50: read-out: MMP-1 IC50, fluorescence-based assay, pH 7.5, 1 h preincubation at 37° C., at least three independent experiments, spread in brackets; for potency v. AHA: based on MMP-1 IC50
T1 sequence (P03956 100-469): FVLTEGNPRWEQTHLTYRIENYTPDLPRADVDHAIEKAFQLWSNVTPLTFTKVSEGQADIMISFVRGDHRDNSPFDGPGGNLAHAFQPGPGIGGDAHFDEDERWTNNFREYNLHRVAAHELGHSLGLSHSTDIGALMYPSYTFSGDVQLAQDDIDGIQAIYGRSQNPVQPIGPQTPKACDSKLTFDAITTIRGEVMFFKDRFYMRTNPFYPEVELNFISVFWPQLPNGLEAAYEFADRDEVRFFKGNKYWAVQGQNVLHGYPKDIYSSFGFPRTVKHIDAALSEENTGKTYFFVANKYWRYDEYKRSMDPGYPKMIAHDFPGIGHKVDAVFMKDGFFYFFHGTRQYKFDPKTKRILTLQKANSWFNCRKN

[2] = target: recombinant anthrax lethal factor (Bacillus anthracis, UniProt P15917); experiment: biochemical; format: biochemical
Chain of recombinant anthrax lethal factor (P15917 34-809 limits assumed): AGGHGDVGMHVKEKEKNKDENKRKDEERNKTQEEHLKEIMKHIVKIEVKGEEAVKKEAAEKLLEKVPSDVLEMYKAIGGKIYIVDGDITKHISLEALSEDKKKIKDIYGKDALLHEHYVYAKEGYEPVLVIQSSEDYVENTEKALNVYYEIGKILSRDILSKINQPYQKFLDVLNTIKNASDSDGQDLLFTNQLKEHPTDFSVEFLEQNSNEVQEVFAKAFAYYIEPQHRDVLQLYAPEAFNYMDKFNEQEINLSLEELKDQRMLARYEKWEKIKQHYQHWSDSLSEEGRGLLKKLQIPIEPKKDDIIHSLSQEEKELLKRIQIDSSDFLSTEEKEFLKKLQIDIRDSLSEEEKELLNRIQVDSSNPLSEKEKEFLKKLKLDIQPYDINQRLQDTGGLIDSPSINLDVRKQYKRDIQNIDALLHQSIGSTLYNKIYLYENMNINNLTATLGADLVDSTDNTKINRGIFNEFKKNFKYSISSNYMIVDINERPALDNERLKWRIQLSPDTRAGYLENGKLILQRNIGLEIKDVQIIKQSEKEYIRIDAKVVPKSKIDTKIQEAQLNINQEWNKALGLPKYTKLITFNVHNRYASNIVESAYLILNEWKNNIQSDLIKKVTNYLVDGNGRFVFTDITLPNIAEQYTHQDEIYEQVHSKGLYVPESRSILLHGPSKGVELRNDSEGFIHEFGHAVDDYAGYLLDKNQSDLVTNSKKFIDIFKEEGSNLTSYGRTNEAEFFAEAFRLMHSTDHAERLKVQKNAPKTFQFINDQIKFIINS

MMP-3 = target: T2, MMP-3 (Homo sapiens, UniProt P08254); experiment: biochemical; format: biochemical
T2 construct: purchased Biomol Research Laboratories
T2 sequence (P08254 100-477): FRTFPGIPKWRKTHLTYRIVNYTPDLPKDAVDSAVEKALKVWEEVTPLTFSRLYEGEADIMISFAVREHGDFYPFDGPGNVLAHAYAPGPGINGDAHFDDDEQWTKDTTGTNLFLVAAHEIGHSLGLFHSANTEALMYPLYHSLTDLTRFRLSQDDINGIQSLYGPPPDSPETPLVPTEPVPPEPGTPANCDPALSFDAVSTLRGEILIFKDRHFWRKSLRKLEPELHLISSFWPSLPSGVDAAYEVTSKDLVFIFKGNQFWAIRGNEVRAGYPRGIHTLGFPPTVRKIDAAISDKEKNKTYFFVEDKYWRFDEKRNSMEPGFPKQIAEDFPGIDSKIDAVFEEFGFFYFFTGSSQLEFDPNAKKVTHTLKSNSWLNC

[3] = target: T3, soybean lipoxygenase (sbLO) (Glycine max, UniProt P08170); experiment: Lipoxygenase assay (absorbance at 234 nm, linoleic acid substrate); format: biochemical; details: 3 hours preincubation; for inhibition at 300 µM: reference compounds, read-out: inhibition of product formation relative to control (no inhibitor)
T3 construct: purchased Sigma-Aldrich
T3 sequence (P08170 1-839): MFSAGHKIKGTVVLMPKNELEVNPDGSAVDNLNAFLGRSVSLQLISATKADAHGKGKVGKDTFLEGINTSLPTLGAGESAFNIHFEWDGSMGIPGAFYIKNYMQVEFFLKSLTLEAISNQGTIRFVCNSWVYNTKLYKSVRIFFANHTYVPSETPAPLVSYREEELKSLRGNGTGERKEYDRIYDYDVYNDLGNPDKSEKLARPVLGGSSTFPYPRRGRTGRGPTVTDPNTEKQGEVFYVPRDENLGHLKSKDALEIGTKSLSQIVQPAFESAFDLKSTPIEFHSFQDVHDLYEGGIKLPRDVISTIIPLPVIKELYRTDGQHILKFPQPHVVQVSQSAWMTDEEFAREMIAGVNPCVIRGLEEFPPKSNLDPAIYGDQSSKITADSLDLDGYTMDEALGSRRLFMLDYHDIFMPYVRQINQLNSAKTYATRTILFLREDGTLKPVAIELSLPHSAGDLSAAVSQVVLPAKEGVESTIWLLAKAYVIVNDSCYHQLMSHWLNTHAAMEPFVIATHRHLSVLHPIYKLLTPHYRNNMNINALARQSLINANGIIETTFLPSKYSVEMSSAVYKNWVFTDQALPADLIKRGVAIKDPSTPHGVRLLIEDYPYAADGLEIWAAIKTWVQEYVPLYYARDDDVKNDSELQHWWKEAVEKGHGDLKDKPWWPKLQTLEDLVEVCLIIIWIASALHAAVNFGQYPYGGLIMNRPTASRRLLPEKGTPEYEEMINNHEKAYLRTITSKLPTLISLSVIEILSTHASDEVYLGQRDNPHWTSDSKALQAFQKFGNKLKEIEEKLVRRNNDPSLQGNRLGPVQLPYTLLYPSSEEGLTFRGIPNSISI

MMP-1 [4] = target: T1, MMP-1; experiment: biochemical

Compound | pIC50 (MMP-1 [1]) | pIC50 ([2]; pH 7, read-out: LF IC50) | potency v. AHA (MMP-3) | pIC50 (MMP-3; pH 6, read-out: MMP-3 IC50) | potency v. AHA (MMP-1 [1]) | inhibition at 300 µM [3] [%] | pIC50 [2] | pIC50 (MMP-3) | pIC50 (MMP-1 [4]) | inhibition of lipoxygenase activity ([3]; ZBGs, method gives chelator final concentration 100 μM) [%]
c1ccc(CNCc2ccccn2)nc1 [ZBG 5, di(2-picolyl)amine] | 4.20 |  |  |  |  |  |  |  |  | 
C1CNCCNCCN1 [ZBG 2] | 2.25 | 2.89 | 19-fold | 2.87 | 7-fold |  |  |  |  | 
di(2-picolyl)amine [ZBG 5] |  | 3.43 | 185-fold | 3.87 | 660-fold |  |  |  |  | 
Cc1occc(=O)c1O [maltol] |  |  |  |  |  | 70 |  |  |  | 
O=C(O)c1cccc(C(=O)O)n1 [ZBG 3, dipicolenic acid] | 1.87 | 2.57 | 4-fold | 2.21 | 3-fold |  |  |  |  | 
O=C(O)c1ccccn1 [ZBG 1, picolinic acid] |  |  | 139-fold |  | 17-fold |  | 2.46 | 3.74 | 2.60 | 2.3
O=C(O)CNCC(=O)O [ZBG 6, aminodiacetic acid] | 3.29 | 3.03 | 139-fold | 3.74 | 82-fold |  |  |  |  | 
CC(=O)NO [AHA, acetohydroxamic acid, reference compound] |  | 1.94 |  |  |  | 99 |  | 1.60 | 1.38 | 
C1CNCCNCCNCCN1 [ZBG 4, cyclen] | 3.37 | 2.24 | 163-fold | 3.81 | 98-fold |  |  |  |  | 

Reference: patent US20120135959A1, “Metalloprotein inhibitors containing nitrogen based ligands” (priority 2006, published 2012)
